Tests used:
Type in all cases: cell-based
[1] = target: T1, alpha2B adrenergic receptor (Homo sapiens, UniProt P18089); test: Receptor Selection and Amplification Technology (RSAT) assay, alpha2B; conditions: for Intrinsic Activity Alpha 2B: RSAT, NIH-3T3 cells, ratio of maximal effect to that of standard full agonist brimonidine (UK14304), NA = not active at concentrations less than 10 micromolar; for Specificity or selectivity for alpha2B (and/or alpha2C) over alpha2A adrenergic receptors: statement in words, RSAT assay
T1 construct: expressed in transfected cells; host or cells: NIH-3T3 cells
T1 sequence (P18089 1-450): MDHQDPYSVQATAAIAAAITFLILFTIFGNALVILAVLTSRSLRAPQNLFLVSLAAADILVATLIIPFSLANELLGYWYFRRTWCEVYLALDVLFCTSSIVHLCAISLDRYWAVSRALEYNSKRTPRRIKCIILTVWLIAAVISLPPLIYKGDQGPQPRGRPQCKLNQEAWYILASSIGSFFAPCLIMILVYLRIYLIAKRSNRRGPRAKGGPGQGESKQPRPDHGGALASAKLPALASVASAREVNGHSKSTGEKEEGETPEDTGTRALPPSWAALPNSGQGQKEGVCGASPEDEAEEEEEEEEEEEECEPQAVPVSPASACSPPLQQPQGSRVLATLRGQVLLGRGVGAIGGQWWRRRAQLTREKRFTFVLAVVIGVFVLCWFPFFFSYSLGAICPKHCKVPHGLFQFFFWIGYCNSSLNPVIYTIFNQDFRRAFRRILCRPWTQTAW
Source text: (§1) The imidazole-2-thione compounds of Formula 1 and the novel compounds 1 through 5 are used in accordance with the present invention as agonists of alpha2 adrenergic receptors. Some compounds of Formula 1 may act as specific or selective agonists of alpha2B and/or to alpha2C adrenergic receptors, in preference over alpha2A adrenergic receptors. […] The specific or selective activity of the compounds of Formula 1 in general and of the novel compounds of the invention can be tested in an assay titled Receptor Selection and Amplification technology (RSAT) assay, which is described in the publication by Messier et. Al., 1995, Pharmacol. Toxicol. 76, pp. 308-311 (incorporated herein by reference) and is also described below. Another reference pertinent to this assay is Conklin et al. (1993) Nature 363:274-6, Receptor Selection and Amplification Technology (RSAT) assay, also incorporated herein by reference.
The RSAT assay measures a receptor-mediated loss of contact inhibition that results in selective proliferation of receptor-containing cells in a mixed population of confluent cells. The increase in cell number is assessed with an appropriate transfected marker gene such as beta-galactosidase, the activity of which can be easily measured in a 96-well format. Receptors that activate the G protein, Gq, elicit this response. Alpha2 receptors, which normally couple to Gi, activate the RSAT response when coexpressed with a hybrid Gq protein that has a Gi receptor recognition domain, called Gq/i5.
NIH-3T3 cells are plated at a density of 2×10^6 cells in 15 cm dishes and maintained in Dulbecco's modified Eagle's medium supplemented with 10% calf serum. One day later, cells are cotransfected by calcium phosphate precipitation with mammalian expression plasmids encoding p-SV-beta-galactosidase (5-10 μg), receptor (1-2 μg) and G protein (1-2 μg). 40 μg salmon sperm DNA may also be included in the transfection mixture. Fresh media is added on the following day and 1-2 days later, cells are harvested and frozen in 50 assay aliquots. Cells are thawed and 100 μl added to 100 μl aliquots of various concentrations of drugs in triplicate in 96-well dishes. Incubations continue 72-96 hr at 37° C. After washing with phosphate-buffered saline, beta-galactosidase enzyme activity is determined by adding 200 μl of the chromogenic substrate (consisting of 3.5 mM o-nitrophenyl-beta-D-galactopyranoside and 0.5% nonidet P-40 in phosphate buffered saline), incubating overnight at 30° C. and measuring optical density at 420 nm. The absorbance is a measure of enzyme activity, which depends on cell number and reflects a receptor-mediated cell proliferation. The efficacy or intrinsic activity is calculated as a ratio of the maximal effect of the drug to the maximal effect of a standard full agonist for each receptor subtype. Brimonidine, also called UK14304, the chemical structure of which is shown below, is used as the standard agonist for the alpha2A, alpha2B and alpha2C receptors.

[2] = target: T2, alpha2A adrenergic receptor (Homo sapiens, UniProt P08913); test: Receptor Selection and Amplification Technology (RSAT) assay, alpha2A; conditions: NIH-3T3 cells, ratio of maximal effect to that of standard full agonist brimonidine (UK14304), NA = not active at concentrations less than 10 micromolar
T2 construct: expressed in transfected cells; host or cells: NIH-3T3 cells
T2 sequence (P08913 1-465): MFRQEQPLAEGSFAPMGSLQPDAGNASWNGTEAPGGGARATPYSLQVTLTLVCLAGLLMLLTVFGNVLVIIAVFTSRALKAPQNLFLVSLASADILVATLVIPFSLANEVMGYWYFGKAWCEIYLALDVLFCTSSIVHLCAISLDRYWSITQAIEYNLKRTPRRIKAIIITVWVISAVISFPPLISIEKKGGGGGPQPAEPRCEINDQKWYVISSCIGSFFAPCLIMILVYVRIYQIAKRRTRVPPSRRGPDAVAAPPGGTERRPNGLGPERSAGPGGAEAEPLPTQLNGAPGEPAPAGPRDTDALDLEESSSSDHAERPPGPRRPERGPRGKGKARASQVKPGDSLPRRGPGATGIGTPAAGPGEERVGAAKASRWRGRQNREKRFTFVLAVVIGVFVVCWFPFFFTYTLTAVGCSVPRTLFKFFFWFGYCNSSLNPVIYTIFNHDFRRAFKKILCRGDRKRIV
Source text: as §1, with “Another reference pertinent to this assay is Conklin et al. (1993) Nature 363:274-6, Receptor Selection and Amplification Technology (RSAT) assay, also incorporated herein by reference.” left out
(§2) The RSAT assay measures a receptor-mediated loss of contact inhibition that results in selective proliferation of receptor-containing cells in a mixed population of confluent cells. The increase in cell number is assessed with an appropriate transfected marker gene such as beta-galactosidase, the activity of which can be easily measured in a 96-well format. […]
(§3) NIH-3T3 cells are plated at a density of 2×10^6 cells in 15 cm dishes and maintained in Dulbecco's modified Eagle's medium supplemented with 10% calf serum. […] The absorbance is a measure of enzyme activity, which depends on cell number and reflects a receptor-mediated cell proliferation. […]

[3] = target: T3, alpha2C adrenergic receptor (Homo sapiens, UniProt P18825); test: Receptor Selection and Amplification Technology (RSAT) assay, alpha2C; conditions: NIH-3T3 cells, ratio of maximal effect to that of standard full agonist brimonidine (UK14304), NA = not active at concentrations less than 10 micromolar
T3 construct: expressed in transfected cells; host or cells: NIH-3T3 cells
T3 sequence (P18825 1-462): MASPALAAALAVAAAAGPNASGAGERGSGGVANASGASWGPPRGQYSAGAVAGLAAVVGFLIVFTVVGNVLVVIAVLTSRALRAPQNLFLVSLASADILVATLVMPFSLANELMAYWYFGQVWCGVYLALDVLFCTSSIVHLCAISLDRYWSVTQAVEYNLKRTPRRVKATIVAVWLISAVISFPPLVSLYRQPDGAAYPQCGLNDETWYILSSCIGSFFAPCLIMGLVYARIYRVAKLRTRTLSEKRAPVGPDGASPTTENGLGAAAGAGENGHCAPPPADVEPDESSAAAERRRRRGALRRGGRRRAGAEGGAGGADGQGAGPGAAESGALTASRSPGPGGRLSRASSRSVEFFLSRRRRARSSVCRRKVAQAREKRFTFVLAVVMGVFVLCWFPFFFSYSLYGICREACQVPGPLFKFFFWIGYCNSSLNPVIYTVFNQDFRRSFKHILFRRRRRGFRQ
Source text: as §1, with “Another reference pertinent to this assay is Conklin et al. (1993) Nature 363:274-6, Receptor Selection and Amplification Technology (RSAT) assay, also incorporated herein by reference.” left out
as §2, §3

Fc1ccc(Cc2c[nH]c(=S)[nH]2)cc1 [Compound 4, 4-(4-fluoro-benzyl)-1,3-dihydro-imidazole-2-thione]
Intrinsic Activity Alpha 2B [1]: 0.92 | Specificity or selectivity for alpha2B (and/or alpha2C) over alpha2A adrenergic receptors [1]: specific agonists of alpha2B agonists in preference over alpha2A and alpha2C adrenergic receptors

S=c1[nH]cc(Cc2ccc(Cl)cc2Cl)[nH]1 [Compound 5, 4-(2,4-dichloro-benzyl)-1,3-dihydro-imidazole-2-thione]
Intrinsic Activity Alpha 2B [1]: 0.95 | Specificity or selectivity for alpha2B (and/or alpha2C) over alpha2A adrenergic receptors [1]: specific agonists of alpha2B agonists in preference over alpha2A and alpha2C adrenergic receptors

Fc1ccccc1Cc1c[nH]c(=S)[nH]1 [Compound 3, 4-(2-fluoro-benzyl)-1,3-dihydro-imidazole-2-thione]
Intrinsic Activity Alpha 2B [1]: 1.3 | Specificity or selectivity for alpha2B (and/or alpha2C) over alpha2A adrenergic receptors [1]: specific agonists of alpha2B agonists in preference over alpha2A and alpha2C adrenergic receptors

S=c1[nH]cc(Cc2c(Cl)cccc2Cl)[nH]1 [Compound 1, 4-(2,6-dichloro-benzyl)-1,3-dihydro-imidazole-2-thione]
Intrinsic Activity Alpha 2A [2]: 0.74 | Intrinsic Activity Alpha 2B [1]: 1.11 | Intrinsic Activity Alpha 2C [3]: 1.18

Fc1c(Cl)cccc1Cc1c[nH]c(=S)[nH]1 [Compound 2, 4-(3-chloro-2-fluoro-benzyl)-1,3-dihydro-imidazole-2-thione]
Intrinsic Activity Alpha 2A [2]: 0.78 | Intrinsic Activity Alpha 2B [1]: 1.05

N#Cc1ccc(-c2ccccc2Cc2c[nH]c(=S)[nH]2)cc1 [Compound 6, 2′-(2-Thioxo-2,3-dihydro-1H-imidazol-4-ylmethyl)-biphenyl-4-carbonitrile]
Intrinsic Activity Alpha 2B [1]: 0.70 | Intrinsic Activity Alpha 2C [3]: 0.71

Reference: patent publication US8178571B2, “Unsubstituted and substituted 4-benzyl-1,3-dihydro-imidazole-2-thiones acting as specific or selective alpha2 adrenergic agonists and methods for using the same” (Allergan, Inc., priority 2004, dated 2012)
